The test system of test [1] is Cricetinae gen. sp. The test is described as follows: Percentage change in serum HDL cholesterol in male hamster after 3-day treatment at 15 mpk. The test is classed as functional.
Another test concerns HepG2. The test is described as follows: inhibitory activity against secretion of lipoproteins apoB and apoA1 from human HepG2 cell lines. It counts as functional. Conditions: read-out: ED50 (the source's name).
Test [2] concerns the target T1, Microsomal triglyceride transfer protein large subunit (Homo sapiens, UniProt P55157).
T1 sequence (P55157 whole entry): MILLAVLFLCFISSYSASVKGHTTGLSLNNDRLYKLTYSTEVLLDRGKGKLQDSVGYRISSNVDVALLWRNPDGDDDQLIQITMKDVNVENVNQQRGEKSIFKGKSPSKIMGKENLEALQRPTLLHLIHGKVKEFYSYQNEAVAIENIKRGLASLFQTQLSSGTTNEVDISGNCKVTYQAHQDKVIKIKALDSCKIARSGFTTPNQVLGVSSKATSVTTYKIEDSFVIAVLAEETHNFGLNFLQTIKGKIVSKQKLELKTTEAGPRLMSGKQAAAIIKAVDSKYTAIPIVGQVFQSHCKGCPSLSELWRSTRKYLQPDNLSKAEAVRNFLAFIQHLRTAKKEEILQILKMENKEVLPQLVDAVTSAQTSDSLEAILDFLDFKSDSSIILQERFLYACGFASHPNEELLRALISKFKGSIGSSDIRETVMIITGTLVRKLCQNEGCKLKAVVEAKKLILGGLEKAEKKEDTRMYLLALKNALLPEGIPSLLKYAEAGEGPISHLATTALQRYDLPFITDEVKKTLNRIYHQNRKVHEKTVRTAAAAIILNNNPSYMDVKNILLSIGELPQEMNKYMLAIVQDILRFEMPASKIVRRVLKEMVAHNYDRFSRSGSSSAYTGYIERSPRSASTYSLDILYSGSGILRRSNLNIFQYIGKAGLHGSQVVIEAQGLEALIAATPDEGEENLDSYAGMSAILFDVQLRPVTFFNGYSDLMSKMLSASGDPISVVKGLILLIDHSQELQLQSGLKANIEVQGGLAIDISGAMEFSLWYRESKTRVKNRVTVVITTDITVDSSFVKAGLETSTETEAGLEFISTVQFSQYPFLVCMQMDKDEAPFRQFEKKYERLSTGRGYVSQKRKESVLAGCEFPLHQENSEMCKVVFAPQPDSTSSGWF
The experiment in a line: In vitro inhibitory concentration against human Microsomal triglyceride transfer protein. It counts as functional.

The test system of test [3] is Cricetinae gen. sp. The experiment in a line: Concentration required for change in serum HDL cholesterol in male hamster after 3-day treatment. The test is classed as functional, Cricetulus griseus. Conditions: 72 h.
The species named for a further test is Mesocricetus auratus. The experiment in a line: Percentage change in serum HDL cholesterol in male hamster after 3-day treatment at 30 mpk.
Test [4] addresses T1, Microsomal triglyceride transfer protein large subunit. The test is described as follows: In vitro inhibition concentration required against triglyceride transfer of human Microsomal triglyceride transfer protein. Conditions: read-out: I50. The test is classed as functional.
In test [5] the test system is Cricetinae gen. sp. The experiment in a line: Percentage change in serum HDL cholesterol in male hamster after 3-day treatment at 20 mpk. It counts as functional, Cricetulus griseus.

These results are taken from ChEMBL document CHEMBL1137891, “5-Carboxamido-1,3,2-dioxaphosphorinanes, potent inhibitors of MTP” (Bioorg Med Chem Lett, 2004).

Each structure is given as a SMILES string.

As for `O=C(N[C@H]1CC[N@+]([O-])(CCCCC2(C(=O)NCC(F)(F)F)c3ccccc3-c3ccccc32)CC1)c1ccccc1-c1ccc(C(F)(F)F)cc1`, the Activity in the test with Cricetinae gen. sp. [1] is listed as -77%. Also, the EC50 in the test on HepG2 (Homo sapiens, HepG2) worked out at 0.9 nM. In addition, in test [2], the IC50 was found to be 5 nM.
For the compound `O=C(NC1COP(=O)(CCCCC2(C(=O)NCC(F)(F)F)c3ccccc3-c3ccccc32)OC1)c1ccccc1-c1nc2ccccc2s1` (stereo not drawn), the Activity in the test with Cricetinae gen. sp. [1] is -76%. The EC50 in the test on HepG2 (Homo sapiens, HepG2) was 7.5 nM. The same compound showed an ED50 with Cricetinae gen. sp. [3] of 4 mg/kg. In addition, in test [2], the IC50 was 9 nM.
On to `O=C(NC1COP(=O)(CCCCC2(C(=O)NCC(F)(F)F)c3ccccc3-c3ccccc32)OC1)c1ccccc1N1CCOCC1` (stereo not drawn), for which the Activity with Cricetinae gen. sp. [1] was -3%. This compound came in with an IC50 in test [2] of 12 nM.
Turning to `O=C(NC1COP(=O)(CCCCC2(C(=O)NCC(F)(F)F)c3ccccc3-c3ccccc32)OC1)OCc1ccccc1` (stereo not drawn), in the test on HepG2 (Homo sapiens, HepG2), the EC50 turned out to be 40 nM. In test [2], this compound yielded an IC50 of 14 nM.
As for `CCCCOP(=O)(CCCCC1(C(=O)NCC(F)(F)F)c2ccccc2-c2ccccc21)OCCCC`, in the test listed under Mesocricetus auratus, the Activity is listed as -5%. For the same compound, in the test on HepG2 (Homo sapiens, HepG2), the EC50 stood at 7 nM. This compound also yielded an IC50 in test [2] of 22 nM.
As to `O=C(NC1COP(=O)(CCCCC2(C(=O)NCC(F)(F)F)c3ccccc3-c3ccccc32)OC1)OCc1ccccc1` (cis isomer), in test [4], the IC50 is 210 nM.
`O=C(NC1COP(=O)(CCCCC2(C(=O)NCC(F)(F)F)c3ccccc3-c3ccccc32)OC1)c1ccccc1-c1ccc(C(F)(F)F)cc1` (cis isomer): the Activity in the test with Cricetinae gen. sp. [5] is listed as -4%. Moreover, in the test with HepG2, the EC50 was 18 nM. The IC50 in test [2] worked out at 44 nM.
`O=C(NC1COP(=O)(CCCCC2(C(=O)NCC(F)(F)F)c3ccccc3-c3ccccc32)OC1)c1ccccc1-c1ccc(C(F)(F)F)cc1` (stereo in doubt; 3a): the Activity in the test listed under Mesocricetus auratus is on record as -73%. Moreover, in the test on HepG2, the EC50 amounted to 0.65 nM. Further, it took a dose of 3.3 mg/kg to reach the 50% effect level with Cricetinae gen. sp. [3] (ED50). This compound also had an IC50 in test [2] of 7 nM.
On to `O=C(NC1COP(=O)(CCCCC2(C(=O)NCC(F)(F)F)c3ccccc3-c3ccccc32)OC1)c1ccccc1-c1ccccn1` (trans isomer), for which the Activity with Cricetinae gen. sp. [1] was -19%. In addition, the EC50 in the test on HepG2 (Homo sapiens, HepG2) is 79 nM. In addition, the IC50 in test [2] is < 10 nM.
In the same order, the values of `O=C(NC1COP(=O)(CCCCC2(C(=O)NCC(F)(F)F)c3ccccc3-c3ccccc32)OC1)c1ccccc1` (trans isomer) are -12%, 23 nM and 11 nM.
Turning to `O=C(NC1COP(=O)(CCCCC2(C(=O)NCC(F)(F)F)c3ccccc3-c3ccccc32)OC1)c1ccccc1-c1nc2ccccc2o1` (trans isomer), in the test listed under Mesocricetus auratus, the Activity is listed as -13%. This compound also displayed an IC50 in test [2] of 3 nM.
With `O=C(NC1CCN(CCCCC2(C(=O)NCC(F)(F)F)c3ccccc3-c3ccccc32)CC1)c1ccccc1-c1ccc(C(F)(F)F)cc1` [LOMITAPIDE], in the test filed under Mesocricetus auratus, the Activity is listed as -92%. Also, in the test with HepG2 (Homo sapiens, HepG2), the EC50 was 0.8 nM. Also, the 50% effect level in the test on Cricetinae gen. sp. [3] (ED50) was put at a dose of 2 mg/kg.
